The results in this text go back to US8536187B2 (Gilead Sciences, Inc., priority 2008, dated 2013).

For data set [1], the system named is HCV replicon in human hepatoma Huh-7 cell line. In words: Anti-HCV replicon assay, EC50 (luciferase luminescence). Type of data set: cell-based. As to conditions: Hepatitis C virus, Huh-7, 72 h. The gist of the method: (§1)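 Cytotoxicity (CC50) read by CellTiter-Glo luminescence after 10 min, and antiviral EC50 by luciferase signal after 30 min lysis with substrate, both at room temperature. Preceding step: 3-day exposure of 6000 Huh-7 HCV replicon cells per well to compound dilution series at 37° C, 5% CO2, in 0.5% DMSO.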

Data set [2] can be described thus: CC50 assay (CellTiter-Glo) in Huh-7 HCV replicon cells. Conditions: human. Type of data set: cell-based. The essentials: as §1

SMILES strings stand for the structures.

Regarding `COc1ccc(-c2ccc3nc(NCCS(N)(=O)=O)nc(NC4(C(F)(F)F)CC4)c3n2)cc1S(C)(=O)=O` [Example 93, 2-(6-(4-methoxy-3-(methylsulfonyl)phenyl)-4-(1-(trifluoromethyl)cyclopropyl-amino)pyrido[3,2-d]pyrimidin-2-ylamino)ethanesulfonamide], the EC50 in data set [1] is < 100 nM. Also, the half-maximal cytotoxic concentration (CC50) at 3 days in data set [2] (Table 2, 3 days incubation) lay within 1000 to 10000 nM.

For the molecule `NS(=O)(=O)c1cc(CNc2nc(NC3(C(F)(F)F)CC3)c3nc(-c4ccc(F)cc4)ccc3n2)ccc1C(F)(F)F` [Example 118, 5-((6-(4-fluorophenyl)-4-(1-(trifluoromethyl)cyclopropyl-amino)pyrido[3,2-d]pyrimidin-2-ylamino)methyl)-2-(trifluoro-methyl)benzenesulfonamide], the half-maximal effective concentration (EC50) in data set [1] lay within 250 to 2000 nM. Also, the CC50 at 3 days in data set [2] (Table 2, 3 days incubation) was > 10000 nM.

For `C[C@@H](Nc1nc(NC2(C(F)(F)F)CC2)c2nc(-c3cccc(S(C)(=O)=O)c3)ccc2n1)c1ccc(-n2cncn2)cc1` [Example 47, N^2-((R)-1-(4-(1H-1,2,4-triazol-1-yl)phenyl)ethyl)-6-(3-(methylsulfonyl)phenyl)-N^4-(1-(trifluoromethyl)cyclopropyl) pyrido[3,2-d]pyrimidine-2,4-diamine], the 50% effective concentration (EC50) in data set [1] is < 100 nM. Further, in data set [2] (Table 2, 3 days incubation), the CC50 at 3 days lay in the range of 1000 to 10000 nM.

As to `COc1ccc(-c2ccc3nc(NCc4ccc(F)c(F)c4)nc(NCC(F)(F)F)c3n2)cc1S(N)(=O)=O` [Example 234, 5-(2-(3,4-difluorobenzylamino)-4-(2,2,2-trifluoroethylamino)pyrido[3,2-d]pyrimidin-6-yl)-2-methoxybenzenesulfonamide], the EC50 in data set [1] is < 100 nM. Also, the CC50 at 3 days in data set [2] (Table 2, 3 days incubation) was > 10000 nM.

The molecule `NS(=O)(=O)c1ccc(CNc2nc(OC3CC3)c3nc(C#CC4CC4)ccc3n2)cc1` [Example 286, 4-((4-cyclopropoxy-6-(2-cyclopropylethynyl)pyrido [3,2-d]pyrimidin-2-ylamino)methyl)benzenesulfonamide] gave a concentration giving a half-maximal response (EC50) in data set [1] of 100 to 250 nM. Besides, the CC50 at 3 days in data set [2] (Table 2, 3 days incubation) is > 10000 nM.

`CC(C)Oc1nc(NCc2ccc(-n3cncn3)cc2)nc2ccc(C#CC3CC3)nc12` [Example 308, N-(4-(1H-1,2,4-triazol-1-yl)benzyl)-6-(2-cyclopropyl-ethynyl)-4-isopropoxypyrido [3,2-d]pyrimidin-2-amine] came in with an EC50 in data set [1] of 250 to 2000 nM. Further, the CC50 at 3 days in data set [2] (Table 2, 3 days incubation) is > 10000 nM.

As for `Cc1cc(S(N)(=O)=O)ccc1[C@H](C)Nc1nc(NC2(C(F)(F)F)CC2)c2nc(-c3ccc(F)cc3)ccc2n1` [Example 108, (S)-4-(1-(6-(4-fluorophenyl)-4-(1-(trifluoromethyl)cyclopropyl-amino)pyrido[3,2-d]pyrimidin-2-ylamino)ethyl)-3-methylbenzene-sulfonamide], the EC50 in data set [1] lay in the range of 250 to 2000 nM. Besides, in data set [2] (Table 2, 3 days incubation), the half-maximal cytotoxic concentration (CC50) at 3 days is > 10000 nM.

In data set [1], `CC[C@@H](Nc1nc(NCC(F)(F)F)c2nc(-c3ccc(F)cc3)ccc2n1)c1ccc(S(N)(=O)=O)cc1` [Example 12, (R)-4-{1-[6-(4-Fluoro-phenyl)-4-(2,2,2-trifluoro-ethylamino)-pyrido[3,2-d]pyrimidin-2-ylamino]-propyl}-benzenesulfonamide] displayed a half-maximal effective concentration (EC50) of 250 to 2000 nM. The CC50 at 3 days in data set [2] (Table 1, 3 days incubation) was 10000 to 25000 nM.

As to `CS(=O)(=O)c1cccc(CNc2nc(NC3(C(F)(F)F)CC3)c3nc(-c4ccc(F)cc4)ccc3n2)c1` [Example 86, N^2-(3-(methylsulfonyl)benzyl)-6-(4-fluorophenyl)-N^4-(1-(trifluoromethyl)cyclopropyl) pyrido[3,2-d]pyrimidine-2,4-diamine], the EC50 in data set [1] is < 100 nM. Further, in data set [2] (Table 2, 3 days incubation), the 50% cytotoxic concentration (CC50) at 3 days is > 10000 nM.

In the case of `CCOc1ccc(-c2ccc3nc(NCc4ccc(-n5cncn5)cc4)nc(NC4(C(F)(F)F)CC4)c3n2)cn1` [Example 52, N^2-(4-(1H-1,2,4-triazol-1-yl)benzyl)-6-(6-ethoxypyridin-3-yl)-N^4-(1-(trifluoromethyl)cyclopropyl)pyrido[3,2-d] pyrimidine-2,4-diamine], the EC50 in data set [1] is < 100 nM. Moreover, the CC50 at 3 days in data set [2] (Table 2, 3 days incubation) lay in the range of 1000 to 10000 nM.

On to `COc1ccc(-c2ccc3nc(NC(C)c4cc(F)cc(F)c4)nc(NCC(F)(F)F)c3n2)cc1S(N)(=O)=O` (centres unmarked) [Example 235, 5-(2-(1-(3,5-difluorophenyl)ethylamino)-4-(2,2,2-trifluoroethylamino)pyrido [3,2-d]pyrimidin-6-yl)-2-methoxybenzenesulfonamide], for which, in data set [1], the EC50 was in the range of 100 to 250 nM. The CC50 at 3 days in data set [2] (Table 2, 3 days incubation) is 1000 to 10000 nM.

Take `C[C@@H](Nc1nc(OC2CC2)c2nc(C#CC3CC3)ccc2n1)c1ccc(S(N)(=O)=O)cc1` [Example 32, (R)-4-(1-(4-cyclopropoxy-6-(2-cyclopropylethynyl)pyrido[3,2-d]pyrimidin-2-ylamino)ethyl)benzenesulfonamide]: in data set [1], the EC50 was < 100 nM. In data set [2] (Table 2, 3 days incubation), the CC50 at 3 days is > 10000 nM.

In turn, `COc1ccc(-c2ccc3nc(NCc4ccc(S(N)(=O)=O)cc4)nc(NC4(C(F)(F)F)CC4)c3n2)cc1C(F)(F)F` [Example 75, 4-((6-(4-methoxy-3-(trifluoromethyl)phenyl)-4-(1-(trifluoromethyl)cyclopropyl-amino)pyrido[3,2-d]pyrimidin-2-ylamino)methyl)benzene-sulfonamide] yielded a 50% effective concentration (EC50) in data set [1] of 250 to 2000 nM. The CC50 at 3 days in data set [2] (Table 2, 3 days incubation) was > 10000 nM.

Regarding `C#Cc1ccc2nc(NCc3ccc(S(N)(=O)=O)cc3)nc(N[C@@H](C)C(F)(F)F)c2n1` [Example 289, (S)-4-((6-ethynyl-4-(1,1,1-trifluoropropan-2-ylamino)pyrido[3,2-d]pyrimidin-2-ylamino)methyl)benzene-sulfonamide], in data set [1], the EC50 was < 100 nM. In addition, the CC50 at 3 days in data set [2] (Table 2, 3 days incubation) lay in the range of 1000 to 10000 nM.

In data set [1], `Fc1ccc(-c2ccc3nc(NCc4ccc(-n5cncn5)cc4)nc(NC4(C(F)(F)F)CC4)c3n2)cc1` [Example 81, N^2-(4-(1H-1,2,4-triazol-1-yl)benzyl)-6-(4-fluorophenyl)-N^4-(1-(trifluoromethyl)cyclopropyl)pyrido[3,2-d] pyrimidine-2,4-diamine] showed a concentration giving a half-maximal response (EC50) of 250 to 2000 nM. Besides, the 50% cytotoxic concentration (CC50) at 3 days in data set [2] (Table 2, 3 days incubation) fell in the range of 1000 to 10000 nM.

`CC(C)Oc1nc(NCc2ccc(-n3cncn3)cc2)nc2ccc(-c3cccc(S(C)(=O)=O)c3)nc12` [Example 198, N-(4-(1H-1,2,4-triazol-1-yl)benzyl)-4-isopropoxy-6-(3-(methylsulfonyl)phenyl)pyrido [3,2-d]pyrimidin-2-amine]: in data set [1], the EC50 was < 100 nM. Also, the CC50 at 3 days in data set [2] (Table 2, 3 days incubation) is > 10000 nM.

As for `COCCNc1nc(NCC(F)(F)F)c2nc(-c3cccc(S(C)(=O)=O)c3)ccc2n1` [Example 139, N^2-(2-methoxyethyl)-6-(3-(methylsulfonyl)phenyl)-N^4-(2,2,2-trifluoroethyl)pyrido [3,2-d]pyrimidine-2,4-diamine], the EC50 in data set [1] is < 100 nM. In addition, the 50% cytotoxic concentration (CC50) at 3 days in data set [2] (Table 2, 3 days incubation) is > 10000 nM.

Take `CS(=O)(=O)c1cc(-c2ccc3nc(NCc4ccc(-n5cncn5)cc4)nc(OC4CCC4)c3n2)ccc1OC(F)F` [Example 204, N-(4-(1H-1,2,4-triazol-1-yl)benzyl)-4-cyclobutoxy-6-(4-(difluoromethoxy)-3-(methylsulfonyl)phenyl)pyrido [3,2-d]pyrimidin-2-amine]: the EC50 in data set [1] is < 100 nM. The CC50 at 3 days in data set [2] (Table 2, 3 days incubation) is 1000 to 10000 nM.

Regarding `COc1ccc(-c2ccc3nc(NCc4cccnc4)nc(NCC(F)(F)F)c3n2)cc1S(C)(=O)=O` [Example 166, 6-(4-methoxy-3-(methylsulfonyl)phenyl)-N^2-(pyridin-3-ylmethyl)-N^4-(2,2,2-trifluoroethyl)pyrido [3,2-d]pyrimidine-2,4-diamine], in data set [1], the concentration giving a half-maximal response (EC50) was < 100 nM. The CC50 at 3 days in data set [2] (Table 2, 3 days incubation) lay within 1000 to 10000 nM.
